According to patent publication US12264146B2, “Rho kinase inhibitor, method for preparing same and uses thereof” (BEIJING INCREASE INNOVATIVE DRUG CO., LTD., priority 2018, dated 2025):
Structures can show the parent of a compound that is named as a salt.

What was measured:
[1] = system: subarachnoid hemorrhage in rats; assay: Rat subarachnoid hemorrhage (SAH) model by intravascular puncture, Sugawara bleeding score; format: in vivo; parameters: dose or concentration left out as unconfirmed; settings: tail vein injection, 2 administrations 4 h apart, scored 24 h after first administration (Sugawara)
prostacyclin (PGI2) = assay: Expression of prostacyclin (PGI2) in EA.Hy926 endothelial cells, ELISA kit; format: cell-based; settings: 24 h; for expression of prostacyclin in endothelial cells: Detection result of test compound at low dose (0.4 μM) / expression of prostacyclin in endothelial cells: Detection result of test compound at medium dose (2 μM) / expression of prostacyclin in endothelial cells: Detection result of test compound at high dose (10 μM): EA.Hy926 cell supernatant
Protocol: (§1) Commercially available cytokine kits were used to detect the effects of the compounds of the present application on vascular endothelium-derived contracting factor endothelin, vascular endothelium-derived relaxing factor endothelial nitric oxide synthase, nitric oxide, and prostacyclin factor. The detection was performed according to the kit instructions. When testing the effect of the compound of the present application on cytokines, a normal control group, a fasudil hydrochloride group, and high-, medium- and low-dose groups of the compounds of the present application were set up for testing. The fasudil hydrochloride used in this test example was purchased from Beijing Sihuan Pharmaceutical Co., Ltd., with the SFDA approval number of H20173349. The EA.Hy926 cells used in this test example were purchased from Suzhou Beina Chuanglian Biotechnology Co., Ltd.
EA.Hy926 cells were taken and inoculated in a 96-well plate at 5×10^4 cells/mL, 100 μL per well, and cultured adherently for 24 hours, then the test compound prepared in DMEM medium was added, and an equal volume of DMEM medium was added in the normal control group, then the cells were cultured at 37° C. for 24 hours, and then the cell supernatant was taken and placed in an EP tube, and centrifuged for 15 min at 3000 r/min and 15° C. The resulting supernatant was transferred to a new EP tube, and then the detection was performed according to the instruction of ELISA kit (purchased from Wuhan Elabscience Biotechnology Co., Ltd., Cat. No. E-EL-0022c), and the detection results were shown in Table 3.

nitric oxide (NO) = assay: Synthesis and secretion of nitric oxide (NO) in EA.Hy926 endothelial cells, NO detection kit; format: cell-based; settings: EA.Hy926 cell supernatant, 24 h
Protocol: as §1
EA.Hy926 cells were inoculated in a 24-well plate at 5×10^5 cells/mL, 400 μL per well, and cultured adherently for 18 hours, then the supernatant was discarded, the test compound prepared in DMEM medium was added, and an equal volume of DMEM medium was added in the normal control group, then the cells was cultured for 24 h in incubator, and then the cell supernatant was collected and detected according to the instructions of NO detection kit (purchased from Beyotime Institute of Biotechnology, Cat. No. 062617171017), and the detection results were shown in Table 5.

[2] = Toxicity test on endothelial cells EA.hy926, CCK-8 cell viability; format: cell-based; settings: human, 1000~0.32 μmol/L, 5-fold dilution, read-out: IC50 of Test compound (cytotoxicity on EA.hy926 cells)
Procedure, shortened: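 EA.hy926 cells (density 5×10^4) were precultured 24 h at 37 °C, 5% CO2, then exposed to compound in DMEM/10% FBS for 24 h, duplicates per concentration. CCK-8 was added for 2.5 h at 37 °C and A450 read. Viability was normalized to PBS normal control minus medium blank, and IC50 was taken from concentration–viability curves.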

In the case of `CCCC[C@@H]1CNCCCN1S(=O)(=O)c1cccc2c(O)nccc12` [Compound R-YK1611, (R)-5-((2-butyl-1,4-diazacycloheptan-1-yl)sulfonyl)isoquinolin-1-ol], the “Cerebral hemorrhage volume score (x ± s)” value [1] is reported as 12.41 ± 2.03, the “expression of prostacyclin in endothelial cells: Detection result of test compound at low dose (0.4 μM)” value (from here on “expression of prostacyclin … (0.4 μM)”) (prostacyclin (PGI2)) is reported as 232.61 ± 9.70 pg/mL and the “expression of prostacyclin in endothelial cells: Detection result of test compound at medium dose (2 μM)” value (from here on “expression of prostacyclin … (2 μM)”) (prostacyclin (PGI2)) is reported as 229.98 ± 11.41 pg/mL. For the same molecule, the “expression of prostacyclin in endothelial cells: Detection result of test compound at high dose (10 μM)” value (from here on “expression of prostacyclin … (10 μM)”) (prostacyclin (PGI2)) was 249.23 ± 0.75 pg/mL, the “nitric oxide secretion in endothelial cells: Detection result of test compound at low dose (0.4 μM)” value (shortened to “nitric oxide secretion … (0.4 μM)”) (nitric oxide (NO)) was 1.095 ± 0.095 μm and the “nitric oxide secretion in endothelial cells: Detection result of test compound at medium dose (2 μM)” value (shortened to “nitric oxide secretion … (2 μM)”) (nitric oxide (NO)) was 1.109 ± 0.087 μm. For the same molecule, the “nitric oxide secretion in endothelial cells: Detection result of test compound at high dose (10 μM)” value (shortened to “nitric oxide secretion … (10 μM)”) (nitric oxide (NO)) was 1.125 ± 0.016 μm and the IC50 at 24 h [2] was 284 µM.

With `COc1nccc2c(S(=O)(=O)N3CCCNC[C@H]3CCC(C)C)cccc12` [Compound R-YK1612, (R)-5-((2-isopentyl-1,4-diazacycloheptan-1-yl)sulfonyl)-1-methoxyisoquinoline] the “Cerebral hemorrhage volume score (x ± s)” value [1] was 13.05 ± 1.96, the “expression of prostacyclin … (0.4 μM)” value (prostacyclin (PGI2)) was 269.40 ± 8.89 pg/mL and the “expression of prostacyclin … (2 μM)” value (prostacyclin (PGI2)) was 269.35 ± 8.69 pg/mL. For the same molecule, the “expression of prostacyclin … (10 μM)” value (prostacyclin (PGI2)) was 257.44 ± 4.48 pg/mL, the “nitric oxide secretion … (0.4 μM)” value (nitric oxide (NO)) was 0.960 ± 0.134 μm and the “nitric oxide secretion … (2 μM)” value (nitric oxide (NO)) was 1.021 ± 0.006 μm. For the same molecule, the “nitric oxide secretion … (10 μM)” value (nitric oxide (NO)) was 1.114 ± 0.006 μm and the IC50 at 24 h [2] was 176 µM.

In the case of `O=S(=O)(c1cccc2cnccc12)N1CCCNCC1` [Fasudil hydrochloride, reference compound], the “Cerebral hemorrhage volume score (x ± s)” value [1] is reported as 10.25 ± 3.24, the “expression of prostacyclin … (0.4 μM)” value (prostacyclin (PGI2)) is reported as 259.07 ± 40.07 pg/mL and the “expression of prostacyclin … (2 μM)” value (prostacyclin (PGI2)) is reported as 208.85 ± 37.07 pg/mL. For the same molecule, the “expression of prostacyclin … (10 μM)” value (prostacyclin (PGI2)) was 184.93 ± 1.09 pg/mL, the “effect on the expression of prostacyclin (in words)” value (prostacyclin (PGI2); low concentration) was “promoted the expression of prostacyclin” and the “effect on the expression of prostacyclin (in words)” value (prostacyclin (PGI2); medium and high concentrations) was “inhibited the expression”. For the same molecule, the “nitric oxide secretion … (0.4 μM)” value (nitric oxide (NO)) was 1.131 ± 0.045 μm, the “nitric oxide secretion … (2 μM)” value (nitric oxide (NO)) was 1.356 ± 0.045 μm and the “nitric oxide secretion … (10 μM)” value (nitric oxide (NO)) was 1.450 ± 0.000 μm. It also gave an IC50 at 24 h [2] of 75.7 µM.
